In the supplement of paper PMC10307832:

Each cell line was assayed with COC1=CC=C(C=C1)CN2C=CC3=C2C=C(C=C3)C(=O)NO + COc1cccc2cc(-c3nc([C@H]4CC[C@H](C(=O)O)CC4)n4ncnc(N)c34)[nH]c12 [OSI-027] (partner 0.5 µM) (assay: relative viability (nuclei count vs DMSO), 5 days (fraction); higher = more cells survive). Conditions: first compound 0.08 µM.
How it was run: (§1)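 Lung cancer cell lines were seeded in 1536-well plates and dosed by pin tool the next day, with either a single drug or a fixed anchor-drug dose combined with five library-drug doses (not always all listed) spaced in √10 steps. Five days later, one step fixed the cells and stained their nuclei (final 0.05% Triton X-100, 1% formaldehyde, 1 ug/ml Hoechst), and nuclei were counted on 4× images. Relative viability is the nuclei count in treated wells divided by the count in vehicle wells, and each value is the median of duplicate plates.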
In the case of PC-3 [JPC-3], the relative viability is reported as 0.766.
NCI-H1792 was tested, and the relative viability was 0.722.
With NCI-H2087 the relative viability was 0.626.
In the case of NCI-H441, the relative viability is reported as 0.715.
HOP-62 gave a relative viability of 0.729.
Work on NCI-H2170 yielded a relative viability of 0.708.
With NCI-H2347 the relative viability was 0.479.
Work on NCI-H1915 yielded a relative viability of 0.564.
Cell Line SK-MES-1 has a relative viability of 0.639.
NCI-H23 showed a relative viability of 0.511.
With CAL-12T the relative viability was 0.723.
Work on HCC-366 yielded a relative viability of 0.486.

Same assay, conditions: first compound 0.253 µM
In the case of PC-3 [JPC-3], the relative viability is reported as 0.781.
Cell Line NCI-H1792 has a relative viability of 0.811.
For NCI-H2087, the relative viability was 0.632.
Work on NCI-H441 yielded a relative viability of 0.709.
Cell Line HOP-62 has a relative viability of 0.888.
Work on NCI-H2170 yielded a relative viability of 0.725.
For NCI-H2347, the relative viability was 0.433.
For HARA, the relative viability was 0.522.
For NCI-H1355, the relative viability was 0.409.
NCI-H1915 showed a relative viability of 0.656.
SK-MES-1 showed a relative viability of 0.626.
NCI-H23 gave a relative viability of 0.68.
NCI-H661 gave a relative viability of 0.78.
With CAL-12T the relative viability was 0.643.
NCI-H1944 was tested, and the relative viability was 0.427.
For HCC-366, the relative viability was 1.03.
In the case of NCI-H322M, the relative viability is reported as 0.529.

Same assay, conditions: first compound 0.8 µM
PC-3 [JPC-3] gave a relative viability of 0.726.
In the case of NCI-H1792, the relative viability is reported as 0.745.
NCI-H2087 showed a relative viability of 0.592.
NCI-H441 showed a relative viability of 0.644.
For HOP-62, the relative viability was 0.909.
In the case of NCI-H2170, the relative viability is reported as 0.8.
NCI-H2347 gave a relative viability of 0.473.
With HARA the relative viability was 0.535.
For NCI-H1355, the relative viability was 0.463.
Cell Line NCI-H1915 has a relative viability of 0.643.
Work on SK-MES-1 yielded a relative viability of 0.62.
NCI-H23 gave a relative viability of 0.582.
For NCI-H661, the relative viability was 0.727.
CAL-12T was tested, and the relative viability was 0.563.
With NCI-H1944 the relative viability was 0.401.
Work on HCC-366 yielded a relative viability of 0.978.
Work on NCI-H322M yielded a relative viability of 0.555.

Same assay, conditions: first compound 2.53 µM
With PC-3 [JPC-3] the relative viability was 0.813.
In the case of NCI-H1792, the relative viability is reported as 0.802.
For NCI-H2087, the relative viability was 0.561.
NCI-H441 was tested, and the relative viability was 0.621.
With HOP-62 the relative viability was 0.871.
With NCI-H2170 the relative viability was 0.81.
For NCI-H2347, the relative viability was 0.481.
HARA showed a relative viability of 0.553.
In the case of NCI-H1355, the relative viability is reported as 0.457.
In the case of NCI-H1915, the relative viability is reported as 0.599.
With SK-MES-1 the relative viability was 0.638.
For NCI-H23, the relative viability was 0.732.
Cell Line NCI-H661 has a relative viability of 0.658.
CAL-12T showed a relative viability of 0.71.
Work on NCI-H1944 yielded a relative viability of 0.407.
HCC-366 showed a relative viability of 0.896.
NCI-H322M gave a relative viability of 0.397.

Same assay, conditions: first compound 8 µM
PC-3 [JPC-3] showed a relative viability of 0.761.
NCI-H1792 showed a relative viability of 0.616.
NCI-H2087 gave a relative viability of 0.347.
NCI-H441 was tested, and the relative viability was 0.459.
HOP-62 was tested, and the relative viability was 0.758.
With NCI-H2170 the relative viability was 0.609.
For NCI-H2347, the relative viability was 0.402.
HARA was tested, and the relative viability was 0.42.
Cell Line NCI-H1355 has a relative viability of 0.38.
For NCI-H1915, the relative viability was 0.532.
With SK-MES-1 the relative viability was 0.583.
NCI-H23 was tested, and the relative viability was 0.53.
NCI-H661 gave a relative viability of 0.625.
In the case of CAL-12T, the relative viability is reported as 0.642.
With NCI-H1944 the relative viability was 0.375.
Cell Line HCC-366 has a relative viability of 0.772.
NCI-H322M was tested, and the relative viability was 0.487.

Each cell line was assayed with COC1=CC=C(C=C1)CN2C=CC3=C2C=C(C=C3)C(=O)NO + N=C(N)NC(=N)NCCc1ccccc1 [Phenformin] (partner 250 µM) in the same assay as above. Conditions: first compound 0.08 µM.
How it was run: as §1
With PC-3 [JPC-3] the relative viability was 0.5.
For NCI-H1792, the relative viability was 0.455.
In the case of NCI-H2087, the relative viability is reported as 0.396.
NCI-H441 was tested, and the relative viability was 0.914.
HOP-62 showed a relative viability of 0.583.
In the case of NCI-H2170, the relative viability is reported as 0.407.
With NCI-H2347 the relative viability was 0.382.
NCI-H1915 gave a relative viability of 0.348.
SK-MES-1 gave a relative viability of 0.661.
NCI-H23 showed a relative viability of 0.699.
In the case of CAL-12T, the relative viability is reported as 0.643.
HCC-366 was tested, and the relative viability was 0.633.

Same assay, conditions: first compound 0.253 µM
Work on PC-3 [JPC-3] yielded a relative viability of 0.464.
In the case of NCI-H1792, the relative viability is reported as 0.358.
With NCI-H2087 the relative viability was 0.448.
In the case of NCI-H441, the relative viability is reported as 0.89.
HOP-62 was tested, and the relative viability was 0.658.
Work on NCI-H2170 yielded a relative viability of 0.396.
Cell Line NCI-H2347 has a relative viability of 0.357.
HARA gave a relative viability of 0.455.
With NCI-H1355 the relative viability was 0.459.
In the case of NCI-H1915, the relative viability is reported as 0.38.
SK-MES-1 gave a relative viability of 0.651.
With NCI-H23 the relative viability was 0.843.
NCI-H661 gave a relative viability of 0.271.
With CAL-12T the relative viability was 0.563.
NCI-H1944 was tested, and the relative viability was 0.234.
HCC-366 was tested, and the relative viability was 0.624.
Cell Line NCI-H322M has a relative viability of 0.821.

Same assay, conditions: first compound 0.8 µM
With PC-3 [JPC-3] the relative viability was 0.475.
NCI-H1792 gave a relative viability of 0.29.
With NCI-H2087 the relative viability was 0.442.
NCI-H441 gave a relative viability of 0.907.
HOP-62 showed a relative viability of 0.696.
NCI-H2170 showed a relative viability of 0.411.
NCI-H2347 showed a relative viability of 0.415.
Work on HARA yielded a relative viability of 0.511.
In the case of NCI-H1355, the relative viability is reported as 0.52.
NCI-H1915 gave a relative viability of 0.378.
Cell Line SK-MES-1 has a relative viability of 0.632.
For NCI-H23, the relative viability was 0.852.
In the case of NCI-H661, the relative viability is reported as 0.313.
CAL-12T was tested, and the relative viability was 0.589.
Cell Line NCI-H1944 has a relative viability of 0.195.
HCC-366 showed a relative viability of 0.634.
For NCI-H322M, the relative viability was 0.762.

Same assay, conditions: first compound 2.53 µM
With PC-3 [JPC-3] the relative viability was 0.495.
NCI-H1792 gave a relative viability of 0.19.
With NCI-H2087 the relative viability was 0.404.
NCI-H441 was tested, and the relative viability was 0.863.
HOP-62 showed a relative viability of 0.643.
NCI-H2170 gave a relative viability of 0.419.
With NCI-H2347 the relative viability was 0.525.
HARA showed a relative viability of 0.43.
Cell Line NCI-H1355 has a relative viability of 0.482.
With NCI-H1915 the relative viability was 0.359.
In the case of SK-MES-1, the relative viability is reported as 0.686.
NCI-H23 gave a relative viability of 0.712.
For NCI-H661, the relative viability was 0.272.
CAL-12T was tested, and the relative viability was 0.581.
Cell Line NCI-H1944 has a relative viability of 0.188.
In the case of HCC-366, the relative viability is reported as 0.599.
NCI-H322M was tested, and the relative viability was 0.737.

Same assay, conditions: first compound 8 µM
With PC-3 [JPC-3] the relative viability was 0.497.
For NCI-H1792, the relative viability was 0.129.
With NCI-H2087 the relative viability was 0.374.
Work on NCI-H441 yielded a relative viability of 0.653.
Work on HOP-62 yielded a relative viability of 0.623.
NCI-H2170 gave a relative viability of 0.381.
With NCI-H2347 the relative viability was 0.368.
With HARA the relative viability was 0.317.
NCI-H1355 was tested, and the relative viability was 0.426.
Cell Line NCI-H1915 has a relative viability of 0.348.
SK-MES-1 was tested, and the relative viability was 0.644.
With NCI-H23 the relative viability was 0.653.
NCI-H661 gave a relative viability of 0.29.
CAL-12T gave a relative viability of 0.493.
With NCI-H1944 the relative viability was 0.165.
HCC-366 was tested, and the relative viability was 0.532.
For NCI-H322M, the relative viability was 0.763.

These cell lines were tested with C[C@]1(c2nc3c(C(N)=O)cccc3[nH]2)CCCN1 [Veliparib] + N=C(N)NC(=N)NCCc1ccccc1 [Phenformin] (partner 250 µM) in the same assay as above. Conditions: first compound 0.02 µM.
How it was run: as §1
With PC-3 [JPC-3] the relative viability was 0.471.
